Experimental data as given in patent US20240376099A1, “COMPOUNDS AND COMPOSITIONS AS INHIBITORS OF ENDOSOMAL TOLL-LIKE RECEPTORS” (Novartis AG, priority 2016, published 2024).
pIC50: −log10 of the molar value.

What follows are compounds tested against T1, TLR9 (Homo sapiens, UniProt Q9NR96) (assay: huPBMC TLR9 Antagonist IFNα Assay). Details: human PBMCs stimulated with ODN2216 0.3 μM, 14-16 hrs; IFNα2b AlphaLISA read-out.
T1 construct: Fresh blood was collected from normal human donors; endogenous in cells; host or cells: human PBMCs from fresh donor blood
T1 sequence (Q9NR96 26-1032): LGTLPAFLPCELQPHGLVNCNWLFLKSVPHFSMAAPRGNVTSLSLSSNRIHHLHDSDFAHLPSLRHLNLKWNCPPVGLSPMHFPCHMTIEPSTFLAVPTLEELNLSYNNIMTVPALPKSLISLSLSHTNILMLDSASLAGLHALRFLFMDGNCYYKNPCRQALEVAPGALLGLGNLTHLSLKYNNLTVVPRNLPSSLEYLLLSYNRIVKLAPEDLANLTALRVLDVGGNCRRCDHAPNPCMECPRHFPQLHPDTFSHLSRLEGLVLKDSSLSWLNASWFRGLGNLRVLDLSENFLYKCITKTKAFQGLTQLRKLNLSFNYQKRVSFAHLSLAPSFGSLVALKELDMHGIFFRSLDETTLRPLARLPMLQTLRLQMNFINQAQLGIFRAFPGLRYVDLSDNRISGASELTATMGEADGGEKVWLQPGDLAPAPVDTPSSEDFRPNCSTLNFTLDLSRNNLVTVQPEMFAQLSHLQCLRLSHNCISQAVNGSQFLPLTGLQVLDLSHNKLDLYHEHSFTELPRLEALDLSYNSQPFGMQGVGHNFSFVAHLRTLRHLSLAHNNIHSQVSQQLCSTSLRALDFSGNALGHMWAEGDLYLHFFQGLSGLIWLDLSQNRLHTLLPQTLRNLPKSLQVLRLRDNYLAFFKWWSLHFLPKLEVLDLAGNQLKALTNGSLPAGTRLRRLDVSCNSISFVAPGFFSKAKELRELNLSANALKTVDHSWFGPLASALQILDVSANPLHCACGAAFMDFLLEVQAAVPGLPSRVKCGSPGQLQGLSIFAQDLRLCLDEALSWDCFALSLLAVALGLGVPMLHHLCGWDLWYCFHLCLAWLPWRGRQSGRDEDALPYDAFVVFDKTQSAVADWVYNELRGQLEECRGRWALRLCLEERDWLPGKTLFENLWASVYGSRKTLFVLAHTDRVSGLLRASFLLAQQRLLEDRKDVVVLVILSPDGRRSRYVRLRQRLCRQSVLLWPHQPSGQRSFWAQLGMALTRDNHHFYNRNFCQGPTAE
Format: cell-based
In short: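 Human PBMCs from fresh donor blood (150,000 cells/well) stimulated 14–16 h at 37 °C with DOTAP-complexed ssRNA40 (final 1 μg/ml for TLR8, 10 μg/mL for TLR7) or ODN2216 (final 0.3 μM, TLR9), 0.25% DMSO, ten-point 1/3 compound dilutions. Supernatant IL-6 read by HTRF (TLR8); IFNα by IFNα2b AlphaLISA (TLR7/TLR9).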

Row | SMILES | pIC50
1 | Cc1cc(N2CCc3c(c(C)nn3CC34CCC(N)(CC3)CC4)C2)c2cnn(C)c2n1 [Compound No. 1, 4-((5-(1,6-dimethyl-1H-pyrazolo[3,4-b]pyridin-4-yl)-3-methyl-4,5,6,7-tetrahydro-1H-pyrazolo[4,3-c]pyridin-1-yl)methyl)bicyclo[2.2.2]octan-1-amine] | 5.82
2 | Cc1cc(N2CCc3c(c(C)nn3CC34CCC(N)(CC3)CC4)C2)c2cn[nH]c2n1 [Compound No. 2, 4-((3-methyl-5-(6-methyl-1H-pyrazolo[3,4-b]pyridin-4-yl)-4,5,6,7-tetrahydro-1H-pyrazolo[4,3-c]pyridin-1-yl)methyl)bicyclo[2.2.2]octan-1-amine] | 5.50
3 | Cc1cc(N2CCc3c(c(C)nn3CC34CCC(N(C)C(=O)OC(C)(C)C)(CC3)CC4)C2)c2cnn(C)c2n1 [Compound No. 49, tert-butyl (4-((5-(1,6-dimethyl-1H-pyrazolo[3,4-b]pyridin-4-yl)-3-methyl-4,5,6,7-tetrahydro-1H-pyrazolo[4,3-c]pyridin-1-yl)methyl)bicyclo[2.2.2]octan-1-yl)(methyl)carbamate] | 5.40
4 | CNC12CCC(Cn3nc(C)c4c3CCN(c3cc(C)nc5c3cnn5C)C4)(CC1)CC2 [Compound No. 50, 4-((5-(1,6-dimethyl-1H-pyrazolo[3,4-b]pyridin-4-yl)-3-methyl-4,5,6,7-tetrahydro-1H-pyrazolo[4,3-c]pyridin-1-yl)methyl)-N-methylbicyclo[2.2.2]octan-1-amine] | 6.42
5 | Cc1cc(N2CCc3c(c(C)nn3CC34CCC(NC(=O)OC5(C)CC5)(CC3)CC4)C2)c2cnn(C)c2n1 [Compound No. 51, 1-methylcyclopropyl (4-((5-(1,6-dimethyl-1H-pyrazolo[3,4-b]pyridin-4-yl)-3-methyl-4,5,6,7-tetrahydro-1H-pyrazolo[4,3-c]pyridin-1-yl)methyl)bicyclo[2.2.2]octan-1-yl)carbamate] | 5.12

Second part, the compound after the results:

Row | pIC50 | SMILES
6 | 5.76 | COc1ccc(Cn2ncc3c(N4CCc5c(c(C)nn5CC56CCC(N)(CC5)CC6)C4)cc(C)nc32)cc1 [Compound No. 53, 4-((5-(1-(4-methoxybenzyl)-6-methyl-1H-pyrazolo[3,4-b]pyridin-4-yl)-3-methyl-4,5,6,7-tetrahydro-1H-pyrazolo[4,3-c]pyridin-1-yl)methyl)bicyclo[2.2.2]octan-1-amine]
7 | 6.19 | Cc1cc(N2CCc3c(c(C)nn3CC34CCC(N5CCCC5)(CC3)CC4)C2)c2cnn(C)c2n1 [Compound No. 58, 5-(1,6-dimethyl-1H-pyrazolo[3,4-b]pyridin-4-yl)-3-methyl-1-((4-(pyrrolidin-1-yl)bicyclo[2.2.2]octan-1-yl)methyl)-4,5,6,7-tetrahydro-1H-pyrazolo[4,3-c]pyridine]
8 | 5.66 | Cc1cc(N2CCc3c(c(C)nn3CC34CCC(N5CCOCC5)(CC3)CC4)C2)c2cnn(C)c2n1 [Compound No. 59, 4-(4-((5-(1,6-dimethyl-1H-pyrazolo[3,4-b]pyridin-4-yl)-3-methyl-4,5,6,7-tetrahydro-1H-pyrazolo[4,3-c]pyridin-1-yl)methyl)bicyclo[2.2.2]octan-1-yl)morpholine]
9 | 6.35 | COCCNC12CCC(Cn3nc(C)c4c3CCN(c3cc(C)nc5c3cnn5C)C4)(CC1)CC2 [Compound No. 69, 4-((5-(1,6-dimethyl-1H-pyrazolo[3,4-b]pyridin-4-yl)-3-methyl-4,5,6,7-tetrahydro-1H-pyrazolo[4,3-c]pyridin-1-yl)methyl)-N-(2-methoxyethyl)bicyclo[2.2.2]octan-1-amine]
10 | 6.75 | Cc1cc(N2CCc3c(c(C)nn3CC34CCC(N(C)C5COC5)(CC3)CC4)C2)c2cnn(C)c2n1 [Compound No. 77, N-(4-((5-(1,6-dimethyl-1H-pyrazolo[3,4-b]pyridin-4-yl)-3-methyl-4,5,6,7-tetrahydro-1H-pyrazolo[4,3-c]pyridin-1-yl)methyl)bicyclo[2.2.2]octan-1-yl)-N-methyloxetan-3-amine]
